Measurements as given in patent publication US6964983B2, “Compounds that modulate PPAR activity and methods for their preparation” (Warner-Lambert Company, LLC, priority 2002, dated 2005).

System: not given
Assay: not given
Conditions: not given

Structure (SMILES) | melting point [°C]
Cc1cc(SCc2ccc(-c3ccccc3)cc2)ccc1OCC(=O)O [Example 2, [4-(Biphenyl-4-ylmethylsulfanyl)-2-methyl-phenoxy]-acetic acid] | 138
Cc1cc(SCc2ccc(OCc3ccccc3)cc2)ccc1OCC(=O)O [Example 13, [4-(4-Benzyloxy-benzylsulfanyl)-2-methyl-phenoxy]-acetic acid] | 120 to 121
Cc1cc(/C=C/c2ccc(-c3ccc(C(F)(F)F)cc3)cc2)ccc1OCC(=O)O [Example 24, {2-Methyl-4-[2-(4′-trifluoromethyl-biphenyl-4-yl)-vinyl]-phenoxy}-acetic acid] | 243 to 245
O=C(O)COc1ccc(SCc2ccc(-c3ccc(C(F)(F)F)cn3)cc2)c2c1CCCO2 [Example 86, {8-[4-(5-Trifluoromethyl-pyridine-2-yl)-benzylsulfanyl]-chroman-5-yloxy}-acetic acid] | 178 to 179
O=C(O)COc1ccc(SCc2cc(-c3ccc(C(F)(F)F)cc3)on2)c2c1CCCO2 [Example 94, {8-[5-(4-Trifluoromethyl-phenyl)-isoxazol-3-ylmethylsulfanyl]-chroman-5-yloxy}-acetic acid] | 171 to 173
O=C(O)COc1ccc(SCc2cc(-c3ccc(Cl)cc3)on2)c2c1CCCO2 [Example 95, {8-[5-(4-Chloro-phenyl)-isoxazol-3-ylmethylsulfanyl]-chroman-5-yloxy}-acetic acid] | 181 to 183
Cc1cc(SCc2cc(-c3ccc(Cl)cc3)on2)ccc1OCC(=O)O [Example 96, {4-[5-(4-Chloro-phenyl)-isoxazol-3-ylmethylsulfanyl]-2-methyl-phenoxy}-acetic acid] | 152 to 153
O=C(O)COc1ccc(SCc2cc(-c3ccc(C(F)(F)F)cc3)on2)c2c1CCCC2 [Example 102, {4-[5-(4-trifluoromethyl-phenyl)-isoxazol-3-ylmethylsulfanyl]-5,6,7,8-tetrahydro-naphthalen-1-yloxy}-acetic acid] | 167 to 170

Target: T1, hPPARβ (Homo sapiens, UniProt Q03181)
T1 sequence (Q03181 171-441 limits assumed): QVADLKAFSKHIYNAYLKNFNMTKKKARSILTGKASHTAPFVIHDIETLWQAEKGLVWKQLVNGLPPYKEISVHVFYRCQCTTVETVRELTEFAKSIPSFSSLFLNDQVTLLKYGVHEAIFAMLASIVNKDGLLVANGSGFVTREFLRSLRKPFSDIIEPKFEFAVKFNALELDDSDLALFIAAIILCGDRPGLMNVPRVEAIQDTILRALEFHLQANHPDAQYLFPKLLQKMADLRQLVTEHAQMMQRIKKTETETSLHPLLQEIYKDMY
Assay: Transient transfection assay in HepG2 cells, Gal4-hPPARβ chimeric receptor, luciferase reporter
Format: cell-based
Conditions: Hep G2-hBeta EC50, 24 hours incubation; read-out: EC50β nM (Group)
Experimental: 1. Test A. Transient Transfections Assay using the HepG2 Hepatoma Cell Line.
HepG2 cells were transiently transfected with an expression plasmids encoding hPPARα, hPPARβ or mPPARγ chimeric receptors and a reporter containing the yeast upstream activating sequence (UAS) upstream of the viral E1B promoter controlling a luciferase reporter gene. In addition, the plasmid pRSVβ-gal was used to control for transfection efficiency. HepG2 cells were grown in DMEM supplemented with 10% FBS and 1 μM non-essential amino acid. On the first day, cells were split into 100 mm dishes at 2.5×10^6/dish and incubated overnight at 37° C./5% CO2. On the second day the cells were transiently transfected with plasmid DNA encoding a chimeric receptor, the luciferase reporter gene; and β-gal. For each 100 mm dish, 15 μg of lucifease reporter (PG5E1b) DNA, 15 μg of Gal4-PPAR chimeric receptor DNA, and 1.5 μg of β-gal plasmid DNA were mixed with 1.4 ml of opti-MEM in the tube. 28 μl of LipoFectamine-2000 reagent was added to 1.4 ml of opti-MEM in the tube, and incubate for 5 min at RT. The diluted Lipofectamine-2000 reagent was combined with the DNA mixture, and incubate for 20 min at RT. After fresh medium was added to each 100 mm dish of cells, 2.8 ml of Lipofectamine2000-DNA mixture was added dropwise to the 100 mm dish containing 14 ml of medium, and incubate 37° C. overnight. On day three cells were trypsinized off the 100 mm dishes and re-plated on 96 well plates. Cells were plated at 2.5×10^4 cells per well in 150 μl of media and 50 μl of compound diluted by media was added. The test compound added were in the range from 50 μM to 50 pM. After addition of compounds, the plates were incubated at 37° C. for 24 hours. Subsequently cells were washed with once with 100 μl of PBS, lysed, and processed for measuring luciferase and β-gal activity using Dual-Light luciferase kit from Tropix ®, according to the manufacturer's recommendations, on an EG&G Bethold MicroLumat LB96P luminometer. EC50 values were obtained using the GraphPad Prism™ program.

Structure (SMILES) | EC50 [nM]
Cc1cc(SCc2ccc(-c3ccc(C(F)(F)F)cn3)cc2)c(Cl)cc1OCC(=O)O [Example 37, {5-Chloro-2-methyl-4-[4-(5-trifluoromethyl-pyridin-2-yl)-benzylsulfanyl]-phenoxy}-acetic acid] | < 300
COc1cc(OCC(=O)O)c(C)cc1SCc1ccc(-c2ccc(C(F)(F)F)cc2)cc1C [Example 39, [5-Methoxy-2-methyl-4-(3-methyl-4′-trifluoromethyl-biphenyl-4-ylmethylsulfanyl)-phenoxy]-acetic acid] | < 300
O=C(O)COc1ccc(SCc2ccc(Cc3ccc(C(F)(F)F)cc3)cc2)c2c1CCC2 [Example 40, {7-[4-(4-trifluoromethyl-benzyl)-benzylsulfanyl]-indan-4-yloxy}-acetic acid] | 500 to 1000
Cc1cc(SCc2ccc(Oc3ccccc3)cc2)ccc1OCC(=O)O [Example 47, [2-Methyl-4-(4-phenoxy-benzylsulfanyl)-phenoxy]-acetic acid] | > 5000
COc1cc(OCC(=O)O)c(C)cc1S(=O)(=O)Cc1ccc(-c2ccc(C(F)(F)F)cc2)cc1 [Example 50, [5-Methoxy-2-methyl-4-(4′-trifluoromethyl-biphenyl-4-ylmethanesulfonyl)-phenoxy]-acetic acid] | 2000 to 5000
COc1cc(OCC(=O)O)c(C)cc1[S+]([O-])Cc1ccc(-c2ccc(C(F)(F)F)cc2)cc1 (stereo not drawn) [Example 51, [5-Methoxy-2-methyl-4-(4′-trifluoromethyl-biphenyl-4-ylmethanesulfinyl)-phenoxy]-acetic acid] | 2000 to 5000
COc1cc(OCC(=O)O)c(C)cc1SCCc1cn(Cc2ccc(C(F)(F)F)cc2)c2ccccc12 [Example 54, (5-Methoxy-2-methyl-4-{2-[1-(4-trifluoromethyl-benzyl)-1H-indol-3-yl]-ethylsulfanyl}-phenoxy)-acetic acid] | 300 to 500
